In patent publication US20240009174A1, “METHODS FOR DISRUPTING MITOCHONDRIAL UNFOLDED PROTEIN RESPONSE” (Health Research, Inc., priority 2020, published 2024):
Blank lines part the entries; values can stand above or below the molecule they belong to.

What was measured:
Type in all cases: cell-based
[1] = target: T1, c-Myc (Homo sapiens, UniProt P01106); test: HSP60 and ClpP expression after c-Myc inhibitor; conditions: LNCaP and PC-3 cells, 50 μM, 24 hrs
T1 construct: endogenous in cells; host or cells: LNCaP and PC-3 cells
Text: FIG. 4. HSP60 regulate ClpP expression but not vice versa. (A) HSP60 and ClpP stable knockdown LNCaP and PC-3 cells were generated using shRNA and analyzed for HSP60 and ClpP expression levels. Actin serves as loading control. (B-C) HSP60 and ClpP knockdown LNCaP and PC-3 cells were crosslinked with EGS, lysed and protein samples run on an SDS-PAGE gel as described in material and methods. Membranes were probed with either ClpP or HSP60 antibody to analyze the oligomerization status of these proteins. (D) Enzymatic activity of ClpP was assayed from mitochondrial pellets isolated from HSP60 knockdown PC-3 cells and DU145 Hsp60^+/− cells. (E) HSP60 was overexpressed in PC-3 cells and analyzed for ClpP expression. Actin serves as loading control. (F) ClpP was overexpressed in LNCaP, DU145 and PC-3 cells and analyzed for HSP60 expression. Actin serves as loading control. […] Whole cell lysates were prepared and analyzed for HSP60 and ClpP expression. […] (H) c-Myc binding efficiency with ClpP promoter in HSP60 knockdown LNCaP and PC-3 cells was determined using chromatin immunoprecipitation (ChIP) assay using specific primers. […]
HSP60 regulates expression of ClpP via c-Myc but not vice versa. […] To confirm that c-Myc is a regulator for ClpP expression, PCa cells were treated with c-Myc pharmacological inhibitor 10058-F4 and analyzed ClpP expression levels. […]

[2] = tested on: LNCaP and PC-3 cells; test: Rescue of DCEM1-induced cell death by ROS quenchers (MTT cell viability)
Method: FIG. 6. Pharmacological inhibition of HSP60-ClpP interaction induces UPR^mt and PCa cell death. (A) Docking of DCEM1 into apical domain of HSP60. (B) LNCaP and PC-3 cells were treated with DCEM1 for 24 hours and HSP60-ClpP interaction was analyzed by co-immunoprecipitation assay. (C) LNCaP and PC-3 cells were treated with DCEM1 for 24 hours and mitoROS levels were analyzed by flow cytometry using mitoSOX dye. (D) LNCaP and PC-3 cells were treated with DCEM1 for 24 hours and poly-Ub protein levels were analyzed by western blotting. (E) LNCaP and PC-3 cells were treated with DCEM1 for 24 and 48 hours and apoptotic cell populations were analyzed by flow cytometry using Annexin V FITC/PI method as explained in materials and methods. In (E) top panel, the bars in each series from left to right are control, 5, 10, and 20, and in (E) bottom panel, the bars in each series from left to right are DMSO, 5, 10, and 20. (F) LNCaP and PC-3 cells were treated with DCEM1 for 24 and 48 hours and lysates were prepared and analyzed for DEVDase activity using specific peptide substrate. […] (G) LNCaP and PC-3 cells were pre-treated with SKQ1 followed by DCEM1 treatment and analyzed for cell viability by MTT assay. (H) LNCaP and PC-3 cells were treated with either DCEM1 or H2O2 (200 μM) for 24 hours and total DNA were isolated and analyzed for mtDNA damage as described in materials and methods. […]

[3] = tested on: HSP60-silenced cells; test: Cell death in HSP60-silenced cells versus mock cells
Text: Although cancer cells prefer aerobic glycolysis for energy, continual production of ATP via OXPHOS system is still required for rapid cancer cell survival and growth. ClpP along with LonP1 degrades Complex I during stress to alleviate mtROS, thus promoting cell survival. HSP60-silencing or inhibition of HSP60-ClpP interaction by DCEM1 contribute to mtROS buildup and mitotoxicity due to inhibition of ClpP function or ClpP-deficiency because ClpP is no longer available/functional in alleviating mtROS production and degrading unfolded protein in mitochondria leading to collapse of mitochondrial function and homeostasis. […] Mitochondrial proteases such as ClpP trigger mitochondria-to-nuclear signaling pathway and UPR^mt activation. Inhibition of ClpP expression and function by HSP60-silencing or HSP60 inhibitor such as DCEM1 may abolish mito-nuclear crosstalk leading to inhibition of retrograde signaling. Inhibition of HSP60 renders mitochondria in a fragile and dysfunctional state leading to enhanced apoptosis and blockage of cellular proliferation. Therefore, chemotherapeutic agents along with HSP60 inhibition may provide a novel combination for therapeutic benefits in PCa.

[4] = tested on: mitochondrial chaperonin activity in PCa cells; test: Mitochondrial Chaperonin Activity Assay (MiCAA); conditions: 24 h
Method: FIG. 10. Mitochondrial Chaperonin Activity Assay (MiCAA). PCa cells were treated with either DCEM1 (A) or ETB or Mizoribine (B) for 24 h and mitochondrial (Mito) chaperonin activity was analyzed as described in material and methods. In another experiment, PCa cells were transfected with siRNA to target HSP60 mRNA and mitochondrial chaperonin activity was analyzed (C). In (A), the bars in each series from left to right are DMSO and DCEM1. In (B), the bars in each series from left to right are DMSO, ETB, and MZR. In (C), the bars in each series from left to right are siMock, siHSP60-1, and siHSP60-2.
Since HSP60 chaperonin system is crucial for maintaining mitochondrial homeostasis in normal cells, a novel method, Mitochondrial Chaperonin Activity Assay (MiCAA), was developed to analyze chaperonin activity in live cells using flow cytometry to evaluate whether DCEM1 modulates mitochondrial chaperonin activity.

T1 sequence (P01106 whole entry): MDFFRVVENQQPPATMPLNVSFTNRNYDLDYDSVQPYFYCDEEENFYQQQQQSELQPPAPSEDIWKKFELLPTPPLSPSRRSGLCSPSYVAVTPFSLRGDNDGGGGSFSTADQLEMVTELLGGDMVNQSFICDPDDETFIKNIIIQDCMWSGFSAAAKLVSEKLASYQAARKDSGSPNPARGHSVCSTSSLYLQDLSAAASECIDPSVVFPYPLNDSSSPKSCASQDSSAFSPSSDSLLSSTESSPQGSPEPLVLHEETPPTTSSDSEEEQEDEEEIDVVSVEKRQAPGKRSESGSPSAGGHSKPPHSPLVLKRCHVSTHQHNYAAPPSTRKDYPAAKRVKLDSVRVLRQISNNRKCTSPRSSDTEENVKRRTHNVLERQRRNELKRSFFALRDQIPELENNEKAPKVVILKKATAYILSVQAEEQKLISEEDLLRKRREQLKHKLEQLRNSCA

ClpP expression [1]: downregulate ClpP expression
HSP60 expression [1]: without affecting HSP60 expression
Compound: CCc1ccc(/C=C2/SC(=S)NC2=O)cc1 [10058-F4]

Compound: CC(=O)N[C@@H](CS)C(=O)O [NAC]
effect of NAC pre-treatment on DCEM1-induced cell death ([2]; PCa cells, data not shown): antagonizes DCEM1-induced cell death

Compound: CC1=C(C)C(=O)C(CCCCCCCCCC[P+](c2ccccc2)(c2ccccc2)c2ccccc2)=CC1=O [SKQ1]
effect of mitoROS quencher pre-treatment on DCEM1-induced cell death ([2]; LNCaP and PC-3 cells pre-treated with SKQ1 followed by DCEM1, MTT assay): inhibited DCEM1—induced cell death

Compound: CC(=O)O[C@@]12CO[C@@H]1C[C@H](O)[C@@]1(C)C(=O)[C@H](O)C3=C(C)[C@@H](OC(=O)[C@H](O)[C@@H](NC(=O)OC(C)(C)C)c4ccccc4)C[C@@](O)([C@@H](OC(=O)c4ccccc4)[C@H]21)C3(C)C [docetaxel]
cell death induction in HSP60-silenced cells compared to mock cells [3]: more efficacious

Compound: NC(=O)c1ncn([C@@H]2O[C@H](CO)[C@@H](O)[C@H]2O)c1O [mizoribine, reference compound]
mitochondrial chaperonin activity [4]: significantly inhibited
